{"source": "paper PMC6222450", "about": "“Computer-Aided Studies for Novel Arylhydantoin 1,3,5-Triazine Derivatives as 5-HT6 Serotonin Receptor Ligands with Antidepressive-Like, Anxiolytic and Antiobesity Action In Vivo” (Molecules : A Journal of Synthetic Chemistry and Natural …, 2018)", "key": {"dopaminergic D2LR": {"molecular_target": "T1, dopaminergic D2LR (Homo sapiens, UniProt P14416)", "T1 construct": "expressed in transfected cells; host or cells: HEK-293", "T1 sequence (P14416 whole entry)": "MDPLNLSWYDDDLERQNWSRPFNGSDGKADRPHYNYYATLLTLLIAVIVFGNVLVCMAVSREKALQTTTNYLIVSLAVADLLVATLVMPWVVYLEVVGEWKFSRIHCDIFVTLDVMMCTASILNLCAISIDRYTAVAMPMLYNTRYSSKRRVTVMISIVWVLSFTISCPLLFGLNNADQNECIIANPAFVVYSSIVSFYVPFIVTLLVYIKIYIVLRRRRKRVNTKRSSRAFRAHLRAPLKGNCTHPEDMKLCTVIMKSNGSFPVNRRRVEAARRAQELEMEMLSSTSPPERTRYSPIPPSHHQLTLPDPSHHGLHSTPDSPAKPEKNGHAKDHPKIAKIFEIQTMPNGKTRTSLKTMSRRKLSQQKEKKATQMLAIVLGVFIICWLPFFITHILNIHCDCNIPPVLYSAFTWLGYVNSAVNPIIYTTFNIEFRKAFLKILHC", "assay": "Radioligand binding assay, D2LR, [3H]-Raclopride", "conditions": "human D2L receptor stably expressed in HEK-293 cells; read-out: Ki D2 [3H]-Raclopride"}, "male Wistar rats": {"tested_on": "male Wistar rats", "assay": "Vogel conflict drinking test", "format": "in vivo, rat", "conditions": "3 mg/kg i.p. 60 min before test, 5 min session, p < 0.05", "description": "The experiments were performed on male Wistar rats (200–220 g—behavioural test or 170–190 g—metabolic assay) obtained from an accredited animal facility at the Jagiellonian University Medical College, Poland. The animals were housed in a group of four in a controlled environment (ambient temperature 21 ± 2 °C; relative humidity 50–60%; 12 h light/dark cycles (lights on at 8:00). Standard laboratory food (LSM-B) and filtered water were freely available (behavioral tests). Animals were assigned randomly to treatment groups. All the experiments were performed by two observers unaware of the treatment applied between 9:00 and 14:00 on separate groups of animals. All animals were used only once.\nCompounds were suspended in 1% Tween 80 immediately before administration in a volume of 2 mL/kg—behavioral tests or 1 mL/kg—body weight measures. Compounds were administered intraperitoneally (i.p.) 60 min before testing—behavioral tests. Control animals received vehicle (1% Tween 80) according to the same schedule.\nThe testing procedure was based on a method of Vogel et al. and used the Anxiety Monitoring System “Vogel test” produced by TSE Systems (Germany). […] The number of licks and the number of shocks received during a 5 min experimental session were recorded automatically."}, "[1]": {"assay": "Body weight of non-obese rats fed only standard diet", "format": "in vivo, rat", "conditions": "rats consuming standard feed, 5 mg/kg b.w. i.p.", "description": "Male Wistar rats (170–190 g) were housed in a pair in plastic cages in constant temperature facilities exposed to a light-dark cycle. Control group (standard diet + vehicle) received vehicle (1% Tween 80, intraperitoneally), while the test group (standard diet + 6 or standard diet + 26) was injected (intraperitoneally) with 6 or 26 at the dose of 5 mg/kg b.w. dissolved in 1% Tween 80 (1 mL/kg). Body weights were measured daily immediately prior to administration of drugs."}, "Lipophilicity by RP-TLC": {"assay": "Lipophilicity by RP-TLC", "format": "physicochemical", "conditions": "RP-18 TLC, water/methanol, extrapolated to 100% water", "description": "For comparison, the active arylmethyl-triazine compounds previously found (1–3) were also examined. Stationary phase RP-18 and mixtures of water/methanol […] as a mobile phase were employed. RM values were calculated from the RF data obtained. […] The regression coefficients (r^2) determined for all compounds were higher than 0.95. On the basis of the linear relationship between RM values and the volume fraction of methanol, values of RM0 in the systems analyzed corresponding to 100% of water were obtained by extrapolation. RM0 values received for the compounds tested ranged from 3.14 to 4.49 (Figure 6).\nThe mobile phases were prepared by mixing the respective amounts of water and organic modifier (methanol) in a range from 40 to 90% (v/v) in 5% increments. TLC was performed on Silica gel 60RP-18 F254 plates (7 × 10 cm) plates (Merck, Darmstadt, Germany). Methanol was used to prepare the solutions of the substances. Solutions (10 µL) of the analyzed compounds were applied to the plates as 5 mm bands, 10 mm apart and 10 mm from the lower edge and sides of the plates, by using Linomat V applicator (Camag, Basel, Switzerland). The vertical chamber (Sigma–Aldrich, St. Louis, MI, USA), 20 × 10 × 18 cm in size, was saturated with mobile phase for 20 min. Development was carried out over 9 cm from the starting line at a temperature of 20 °C. Next, the plates were dried at room temperature, and the spots were observed under ultraviolet light at 254 nm and/or 366 nm (UV lamp, Camag, Basel, Switzerland). In each case, sharp and symmetric spots without a tendency for tailing were obtained. Each experiment was run in triplicate and mean RF (retardation factor) values were calculated.\nStarting from the RF values, the RM parameters were computed as described in the formula:RM = log(1/RF − 1)\nThe linear correlations between the RM values of the substances and the concentration of methanol in mobile phases were calculated for each compound with the Soczewiński-Wachtmeister equation [22]:RM = RM0 + aC where C is the concentration of the organic modifier (in %) in the mobile phase, a is the slope, and RM0 is the […]."}}, "data": [{"smiles": "CN1CCN(c2nc(N)nc(CN3C(=O)NC(C)(c4ccc5ccccc5c4)C3=O)n2)CC1", "note": "(stereo not shown) [Compound 26, 3-((4-Amino-6-(4-methylpiperazin-1-yl)-1,3,5-triazin-2-yl)methyl)-5-methyl-5-(naphthalen-2-yl)imidazolidine-2,4-dione]", "values": [{"measurement": "Ki", "setting": "dopaminergic D2LR", "result": 4.25, "unit": "µM"}, {"measurement": "increase of number of accepted shocks", "setting": "male Wistar rats", "result": 76, "unit": "%"}, {"measurement": "effect on body weight", "setting": "[1]", "result": "No effects on body weight"}, {"measurement": "RM0", "setting": "Lipophilicity by RP-TLC", "result": 3.76}]}]}
